Reference: patent US8389523B2, “Substituted quinoxaline and an agrochemical composition thereof” (Kumiai Chemical Industry Co., Ltd., priority 2007, dated 2013)

How the values were obtained:
Format in all cases: in vivo
Design in all cases: scale not given here
[1] = tested on: Scirpus juncoides Roxb. var. ohwianus. T. Koyama; assay: Herbicidal effects in paddy field soil treatment (Test Example 1); conditions: for Herbicidal effects index, Scirpus juncoides Roxb. var. ohwianus. T. Koyama: paddy field soil treatment, 1000 g of the active ingredient per hectare, wettable powder added dropwise on water surface, 21st day after treatment
Summary of the method: (§1)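 Scoring of herbicidal effect took place 21 days after treatment, using a rating scale, on plants grown in a greenhouse. The test compound, formulated as a wettable powder and diluted with water, had been applied dropwise to the flood water at 1000 g active ingredient per hectare, one day after sowing into puddled paddy soil held under 3 cm of water.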

[2] = tested on: Monochoria vaginalis (Burm. f.) Presl var. plantaginea (Roxb.) Solms-Laub.; assay: as above; conditions: for Herbicidal effects index, Monochoria vaginalis (Burm. f.) Presl var. plantaginea (Roxb.) Solms-Laub.: paddy field soil treatment, 1000 g of the active ingredient per hectare, wettable powder added dropwise on water surface, 21st day after treatment
Summary of the method: as §1

[3] = tested on: Echinochloa oryzicola Vasing; assay: as above; conditions: for Herbicidal effects index, Echinochloa oryzicola Vasing: paddy field soil treatment, 1000 g of the active ingredient per hectare, wettable powder added dropwise on water surface, 21st day after treatment
Summary of the method: as §1

Amaranthus viridis L. [4] = assay: Herbicidal effects in upland field foliar treatment (Test Example 3); conditions: criteria of Table 138; for herbicidal effects on Amaranthus viridis L.: 1000 g of the active ingredient per hectare, 14th day after the treatment, wettable powder; for herbicidal effect (index) on Amaranthus viridis L.: 1000 g active ingredient per hectare, 14th day after treatment
Summary of the method: (§2)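 Herbicidal activity is rated visually on a fixed scale 14 days after foliar application. Plants raised from seed in upland field soil for two weeks under glass receive a water dilution of a wettable powder at 1000 g a.i. per hectare in 1000 L/ha.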

[5] = tested on: Echinochloa crus-galli (L.) P. Beauv. var. crus-galli; assay: as above; conditions: criteria of Table 138; for herbicidal effects on Echinochloa crus-galli (L.) P. Beauv. var. crus-galli: 1000 g of the active ingredient per hectare, 14th day after the treatment, wettable powder; for herbicidal effect (index) on Echinochloa crus-galli (L.) P. Beauv. var. crus-galli: 1000 g active ingredient per hectare, 14th day after treatment
Summary of the method: as §2

[6] = tested on: Abutilon theophrasti medicus; assay: as above; conditions: criteria of Table 138; for herbicidal effects on Abutilon theophrasti medicus: 1000 g of the active ingredient per hectare, 14th day after the treatment, wettable powder; for herbicidal effect (index) on Abutilon theophrasti medicus: 1000 g active ingredient per hectare, 14th day after treatment
Summary of the method: as §2

Amaranthus viridis L. [7] = assay: Herbicidal effects in upland field soil treatment (Test Example 2); conditions: 1000 g active ingredient per hectare, 21st day after treatment, criteria of Table 138
Summary of the method: (§3)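 Herbicidal effect was rated visually against set criteria on the 21st day after a pre-emergence soil-surface spray of diluted wettable powder delivering 1000 g active ingredient per hectare (1000 L/ha). Seeds had been sown and covered in upland field soil; plants grew in a greenhouse.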

[8] = tested on: Abutilon theophrasti medicus; assay: as above; conditions: 1000 g active ingredient per hectare, 21st day after treatment, criteria of Table 138
Summary of the method: as §3

[9] = paddy field soil treatment (Test Example 1), criteria of Table 138

| Compound | Herbicidal effects index, Scirpus juncoides Roxb. var. ohwianus. T. Koyama [1] | Herbicidal effects index, Monochoria vaginalis (Burm. f.) Presl var. plantaginea (Roxb.) Solms-Laub. [2] | Herbicidal effects index, Echinochloa oryzicola Vasing [3] | herbicidal effects on Amaranthus viridis L. (Amaranthus viridis L. [4]) | herbicidal effects on Echinochloa crus-galli (L.) P. Beauv. var. crus-galli [5] | herbicidal effects on Abutilon theophrasti medicus [6] | herbicidal effect (index) on Amaranthus viridis L. (Amaranthus viridis L. [7]) | herbicidal effect (index) on Abutilon theophrasti medicus [8] | herbicidal effect (index) on Amaranthus viridis L. (Amaranthus viridis L. [4]) | herbicidal effect (index) on Echinochloa crus-galli (L.) P. Beauv. var. crus-galli [5] | herbicidal effect (index) on Abutilon theophrasti medicus [6] | herbicidal effect (index) on Scirpus juncoides Roxb. var. ohwianus. T. Koyama [1, 9] | herbicidal effect (index) on Monochoria vaginalis (Burm. f.) Presl var. plantaginea (Roxb.) Solms-Laub. [2, 9] | herbicidal effect (index) on Echinochloa oryzicola Vasing [3, 9] |
| --- | --- | --- | --- | --- | --- | --- | --- | --- | --- | --- | --- | --- | --- | --- |
| COc1cc(OC)cc(-n2c(=O)c(C(=O)C3=C(O)CCCC3=O)nc3ccccc32)c1 [II-173] | 5 | 5 | 5 | 5 | 4 | 5 | 5 | 4 |  |  |  |  |  |  |
| N#CCCOCn1c(=O)c(C(=O)C2=C(O)CCCC2=O)nc2ccccc21 [I-68] | 5 | 5 | 4 |  |  |  | 5 | 5 | 5 | 4 | 5 |  |  |  |
| Cn1c(=O)c(C(=O)C2=C(O)C3CCC(C3)C2=O)nc2cccnc21 (stereo not drawn) [III-5] | 5 | 5 | 5 | 5 | 5 | 5 | 4 | 5 |  |  |  |  |  |  |
| COCn1c(=O)c(C(=O)C2=C(O)CCCC2=O)nc2ccccc21 [I-49] | 5 | 5 | 5 |  |  |  | 5 | 5 | 5 | 4 | 5 |  |  |  |
| COc1cccc(-n2c(=O)c(C(=O)C3=C(O)CCCC3=O)nc3cccnc32)c1 [IV-57] |  |  |  | 5 | 4 | 5 | 5 | 5 |  |  |  | 5 | 5 | 4 |
| O=C1CCCC(O)=C1C(=O)c1nc2cccnc2n(-c2cccc(Br)c2)c1=O [IV-17] | 5 | 5 | 5 | 5 | 5 | 5 | 5 | 5 |  |  |  |  |  |  |
| Cc1ccccc1-n1c(=O)c(C(=O)C2=C(O)CCCC2=O)nc2cccnc21 [IV-19] | 5 | 5 | 5 | 5 | 5 | 5 | 5 | 5 |  |  |  |  |  |  |
| CCCCn1c(=O)c(C(=O)C2=C(O)CCCC2=O)nc2cccnc21 [III-15] | 5 | 5 | 5 | 5 | 5 | 5 | 5 | 5 |  |  |  |  |  |  |
| COCCCn1c(=O)c(C(=O)C2=C(O)CCCC2=O)nc2ccccc21 [Compound I-93] | 5 | 5 | 5 |  |  |  | 5 | 4 | 5 | 5 | 5 |  |  |  |
| COc1ccc2nc(C(=O)C3=C(O)CCCC3=O)c(=O)n(-c3cc(F)c(OC)cc3F)c2c1 [II-254] | 5 | 5 | 5 | 5 | 5 | 4 | 5 | 4 |  |  |  |  |  |  |
| COc1ccccc1-n1c(=O)c(C(=O)C2=C(O)CCCC2=O)nc2ccccc21 [II-52] | 5 | 5 | 5 | 5 | 5 | 5 | 5 | 5 |  |  |  |  |  |  |
| O=C1CCCC(O)=C1C(=O)c1nc2ccccc2n(-c2ccc3occc3c2)c1=O [I-277] | 5 | 5 | 5 |  |  |  | 5 | 4 | 5 | 5 | 5 |  |  |  |
| O=C1CCCC(O)=C1C(=O)c1nc2cccnc2n(Cc2cccc(C(F)(F)F)c2)c1=O [III-118] | 5 | 5 | 5 | 5 | 5 | 5 | 5 | 5 |  |  |  |  |  |  |
| O=C1CCCC(O)=C1C(=O)c1nc2ccccc2n(-c2ccsc2)c1=O [I-139] | 5 | 5 | 5 |  |  |  | 5 | 5 | 5 | 4 | 5 |  |  |  |
| Cc1cccc2c1nc(C(=O)C1=C(O)CCCC1=O)c(=O)n2-c1ccccc1 [II-244] | 5 | 5 | 5 | 5 | 5 | 5 | 5 | 5 |  |  |  |  |  |  |
